Test results as given in US20160299149A1, “ASSAYS AND METHODS FOR CELL PROLIFERATION-TARGETED TREATMENT THERAPIES” (University of Central Florida Research Foundation, Inc., priority 2015, published 2016).
Where two headings read alike, the source gives them in different places. Values belong to the molecule of their own block, whether it stands above or below them.

Experiments:
[1] = system: amine oxidases; test: Metabolic stability to amine oxidases; type: in vitro ADME, calf; conditions: unmethylated compound judged without the protective aminoguanidine (AG)
From the text: (§1) Table 1 compares unmethylated Compound A (containing primary amine termini), and N-methylated Compound A (containing N-methyl termini). […] This is due to the presence of the terminal N-methyl groups in A.

[2] = system: CHO-MG* cells; test: PTS targeting: cytotoxicity IC50 in PTS-deficient cells; type: cell-based
From the text: as §1

[3] = system: melanoma cell lines; test: NCI 60-cancer cell screen; type: cell-based; conditions: for sensitivity of MALME-3M in NCI 60-cancer cell screen: MALME-3M (low Cav-1 and high Cav-2)
From the text: (§2) Graphical bars extending to the right of the 0 growth percent line indicates growth inhibition by compound A of those specific cell lines.

[4] = system: MALME-3 cells; test: Cytotoxicity IC50 in matched control cells; type: cell-based; conditions: in the presence of aminoguanidine (1 mM)
[5] = system: CHO cells; test: PTS targeting: cytotoxicity IC50 in PTS-active cells; type: cell-based
From the text: as §1

[6] = system: MALME-3M cells and MALME-3 control cells; test: Spermidine competition / percent viability with compound A; type: cell-based
Description: Aminoguanidine (AG) at 1 mM was determined to be non-toxic and was incubated with cells for 24 h prior to compound addition. Control represents the untreated cells. All experiments were performed in triplicate. Spermidine (Spd, 100 μM) was non-toxic to both cell lines. […] Compound A is a valid polyamine transport probe.

[7] = system: MALME-3M cells; test: Cytotoxicity IC50 in metastatic melanoma cells; type: cell-based
From the text: as §2

[8] = system: L3.6pl cells; test: Assay 2 with GW5074 PTI in L3.6pl cells; type: cell-based, human; conditions: 500 cells/well, 48 h at 37° C., 250 μM aminoguanidine
Description: (§3) DFMO was dosed to give 50% relative viability versus an untreated control, i.e. DFMO is dosed at its IC50 value. Exogenous spermidine (Spd, 1 μM) is added to the DFMO treated cells and provided significant rescue of these cells to >80% viability depending upon the cell line. A successful PTI was able to block the entry of the spermidine rescuing agent into DFMO treated cells and result in a cell viability near the DFMO control (i.e. 50% viability). The inventors identified the following cell viabilities: DFMO only (50%), Spd only (100%), PTI (>90%), DFMO+Spd (>80%), DFMO+Spd+PTI (50%). The PTI provides a dose dependent lowering of cell viability in the presence of DFMO and a rescuing dose of spermidine. […] Identifying cells that respond to exogenous spermidine allow this assay to be possible and the c-myc and ATP13A3 biomarkers help predict these outcomes as well as the Vmax measurements for ^3H Spd import.

[9] = system: L3.6pl pancreatic tumor; test: Human L3.6pl pancreatic tumor in nude mice, combination with 1% DFMO; type: in vivo; conditions: GW5074 1 mg/kg i.p. 5 days per week for 2 weeks, trimer44NMe equimolar (1.8 mg/kg), 1% DFMO in drinking water
Description: The extension of these findings is that cells which have high c-myc and ATP13A3 expression will be sensitive to the therapy described herein. These therapies were evaluated in vivo.
The first set of experiments was in nude mice (immune compromised) using human L3.6pl pancreatic cancer cells which have high ATP13A3 and high c-myc expression and high Vmax. […] Note TTI′ in FIGS. 12 and 13 refer to the polyamine-based trimer44NMe PTI compound.
0.5×10^6 L3.6pl tumor cells were injected into the pancreas of nude mice and allowed to grow for 1 week. 1% DFMO was administered in the drinking water (changed weekly) for 2 weeks. […] Mice were collected and pancreatic tissue/tumor, with spleen attached, was weighed.

[10] = system: PanO2 derived tumors; test: Histology (Ki67, cleaved caspase) of PanO2 derived tumors; type: in vivo; conditions: PanO2 derived tumors in C57Bl/6 mice
From the text: FIG. 14 illustrates histological stained images of Ki67, a proliferation marker, and cleaved caspase in the presence of DFMO or DFMO+ the trimer44NMe PTI

[11] = system: DFMO-treated cells; test: Polyamine transport inhibitor assay 2: PTI blocks uptake of rescuing spermidine into DFMO-treated cells; type: cell-based
Description: FIG. 6A is a diagram showing an assay wherein the uptake of rescuing dose of spermidine into DFMO-treated cells is blocked by a PTI (GW 5074).
as §3

[12] = system: L3.6pl cells; test: DFMO 48 h IC50 in L3.6pl cells; type: cell-based, human
Description: FIG. 19B provides a graphical illustration of the effect of scrambled siRNA vs. ATP13A3 siRNA on relative L3.6pl cell viability % when challenged with a 48 h IC50 dose of DFMO (8 mM) and a rescuing dose of Spd (1 μM).
FIG. 20B provides a graphical illustration of the effect of scrambled siRNA vs. ATP13A3 siRNA on relative L3.6pl cell viability % when challenged with a 48 h IC50 dose of DFMO (8 mM) and a rescuing dose of Spd (1 μM).

[13] = system: L3.6pl pancreatic cancer cells; test: Western blot of ATP13A3 and Cav-1 protein levels with DFMO; type: cell-based, human; conditions: 72 h incubation at 37° C.
Description: (§4) FIGS. 9A-B provide graphical illustrations of the modulation of ATP13A3 and Cav-1, respectively, by DFMO and DFMO+Spermidine in L3.6pl human pancreatic cancer cells after 72 h incubation at 37° C. In FIG. 9A ATP13A3 protein levels after 72 h incubation at 37° C. are shown in L3.6pl (top) and Bx-PC3 (bottom) pancreatic cancer cells in the presence of DFMO or DFMO+Spd as analyzed by Western blot. Expression was normalized using β-actin levels. […] Note an increase in Cav-1 levels would stabilize caveolae at the cell surface and reduce the uptake of polyamines via a caveolin dependent pathway. A decrease in Cav-1 levels would increase polyamine import.

[14] = system: BxPC-3 pancreatic cancer cells; test: as above; type: cell-based, human; conditions: 72 h incubation at 37° C.
Description: as §4

[15] = system: L3.6pl, Panc1, CHO and PanO2 cells; test: Cell line sensitivity to DFMO and spermidine rescue challenge; type: cell-based
[16] = with aminoguanidine (AG), read-out: CHO-MG* IC50 w/ AG
[17] = without aminoguanidine (AG), read-out: CHO-MG* IC50 w/o AG
[18] = with aminoguanidine (AG), read-out: CHO IC50 w/ AG
[19] = without aminoguanidine (AG), read-out: CHO IC50 w/o AG
[20] = MALME-3M, 96 h, read-out: 96 h IC50
[21] = in the presence of aminoguanidine (1 mM)

metabolic stability to amine oxidases [1]: metabolically stable
Molecule: CNCCCCNCCCCNCc1ccc(CNCCCCNCCCCNC)c2ccccc12 [Compound A]
IC50 [2, 16]: > 100 µM
IC50 [2, 17]: > 100 µM
sensitivity of MALME-3M in NCI 60-cancer cell screen ([3]; 10 μM): most sensitive cell line
growth of cancer cell lines in NCI 60-cancer cell screen ([3]; 10 μM, MALME-3M, M14, MDA-MB-435, SK-MEL2, SK-MEL-28, SK-MEL-5, UACC-257, UACC-62): decreased growth of cancer cell lines
sensitivity of LOX IMVI melanoma cell line ([3]; LOX IMVI (high Cav-1, low Cav-2)): most resistant melanoma cell line
IC50 [4]: 0.82 µM
CHO-MG*/CHO IC50 ratio (selectivity for CHO cells with active PTS) ([5]; summary bound, also when AG is removed): > 2200
IC50 ratio w/ AG (CHO-MG*/CHO) ([5]; with aminoguanidine (AG)): >2272
IC50 [5, 18]: 0.044 µM
IC50 ratio w/o AG (CHO-MG*/CHO) ([5]; without aminoguanidine (AG)): >2564
IC50 [5, 19]: 0.039 µM
competition with spermidine for cell entry (percent viability) ([6]; 96 h at 37 degrees Celsius, 0.02 μM (MALME-3M cells), 0.8 μM (MALME-3 control cells)): competes with Spd for cell entry
IC50 [7, 20]: 0.014 µM
IC50 ratio (MALME-3/MALME-3M) [7, 21]: 59

Molecule: O=C1Nc2ccc(I)cc2/C1=C/c1cc(Br)c(O)c(Br)c1 [GW5074]
effectiveness against L3.6pl cells ([8]; in combination with DFMO): effective
reduction in tumor size [9]: statistically significant reduction

Molecule: CNCCCCNCCCCNCc1c2ccccc2c(CNCCCCNCCCCNC)c2ccccc12 [Compound B]
sensitivity of MALME-3M in NCI 60-cancer cell screen ([3]; 10 μM): most sensitive cell line
IC50 [7, 20]: 0.062 µM

metabolic stability to amine oxidases [1]: enhanced stability
Molecule: CNCCCCNCCCCNCc1cc(CNCCCCNCCCCNC)cc(CNCCCCNCCCCNC)c1 [Compound 6b]
proliferation (Ki67 histological stain) [10]: reduced proliferation
cleaved caspase staining (apoptosis) ([10]; PTI by itself): apoptosis is occurring
effectiveness as PTI agent in vitro ([11]; in vitro): effective

IC50 [12]: 8000 µM
Molecule: difluoromethylornithine [DFMO]
proliferation (Ki67 histological stain) [10]: reduced proliferation
effectiveness against L3.6pl cells ([8]; DFMO alone): effective
relative ATP13A3 expression (normalized using β-actin) ([13]; 48 h IC50 DFMO dose (e.g., 8 mM)): significant increase
levels of Cav-1 ([13]; in the presence of DFMO): not dramatically changed
relative ATP13A3 expression (normalized using β-actin) ([14]; Bx-PC3, 48 h IC50 DFMO dose (e.g., 8 mM)): significant increase
levels of Cav-1 ([14]; BxPC-3, in the presence of DFMO): not dramatically changed
IC50 [15]: < 5000 µM
cell viability ([11]; DFMO dosed at its IC50, Spd 1 μM, PTI not above its IC10, relative to untreated control): 50%

Molecule: NCCCCNCCCCNCc1ccc(CNCCCCNCCCCN)c2ccccc12 [Compound A w/o Me]
metabolic stability to amine oxidases [1]: less selective and less metabolically stable
IC50 [2, 16]: > 100 µM
IC50 [2, 17]: 52.1 µM
IC50 [4]: 1.21 µM
IC50 ratio w/ AG (CHO-MG*/CHO) ([5]; with aminoguanidine (AG)): >4545
IC50 [5, 18]: 0.022 µM
IC50 ratio w/o AG (CHO-MG*/CHO) ([5]; without aminoguanidine (AG)): 9.5
IC50 [5, 19]: 5.5 µM
IC50 ratio (MALME-3/MALME-3M) [7, 21]: 71
IC50 ([7]; in the presence of aminoguanidine (1 mM), read-out: MALME-3M IC50): 0.018 µM

Molecule: N=C(N)NN [Aminoguanidine, aminoguanidine]
toxicity to cells ([6]; 1 mM, incubated with cells for 24 h prior to compound addition): non-toxic
